Measurements as given in the supplement of paper PMC10307832.

What was measured:
Test in all cases: relative viability (nuclei count vs DMSO), 5 days (fraction); higher = more cells survive
AZ505 + Dasatinib = compound: C1CCC(CC1)N(CCNCCC2=C3C(=C(C=C2)O)NC(=O)CO3)C(=O)CCNCCC4=CC(=C(C=C4)Cl)Cl [AZ505] + Cc1nc(Nc2ncc(C(=O)Nc3c(C)cccc3Cl)s2)cc(N2CCN(CCO)CC2)n1 [Dasatinib] (partner 0.075 µM)
Outline: (§1)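 Lung cancer cell lines, seeded in 1536-well plates, were treated the following day by pin tool with a single drug or with five library-drug doses (not always all listed) in √10 steps on top of a fixed anchor-drug dose. Cells were fixed and nuclei stained in one step after 5 days, and nuclei were counted. Relative viability is the nuclei count for treated wells divided by that for vehicle wells, reported as medians of duplicate plates.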

Dactolisib + Bortezomib = compound: Cn1c(=O)n(-c2ccc(C(C)(C)C#N)cc2)c2c3cc(-c4cnc5ccccc5c4)ccc3ncc21 [Dactolisib] + CC(C)C[C@H](NC(=O)[C@H](Cc1ccccc1)NC(=O)c1cnccn1)B(O)O [Bortezomib] (partner 0.002 µM)
Outline: as §1

Dactolisib + Tozasertib = compound: Cn1c(=O)n(-c2ccc(C(C)(C)C#N)cc2)c2c3cc(-c4cnc5ccccc5c4)ccc3ncc21 [Dactolisib] + Cc1cc(Nc2cc(N3CCN(C)CC3)nc(Sc3ccc(NC(=O)C4CC4)cc3)n2)n[nH]1 [Tozasertib] (partner 0.1 µM)
Outline: as §1

Dactolisib + Pemetrexed = compound: Cn1c(=O)n(-c2ccc(C(C)(C)C#N)cc2)c2c3cc(-c4cnc5ccccc5c4)ccc3ncc21 [Dactolisib] + Nc1nc2[nH]cc(CCc3ccc(C(=O)N[C@@H](CCC(=O)O)C(=O)O)cc3)c2c(=O)[nH]1 [Pemetrexed] (partner 0.2 µM)
Outline: as §1

Cell Line | relative viability (AZ505 + Dasatinib; first compound 0.08 µM) | relative viability (AZ505 + Dasatinib; first compound 0.253 µM) | relative viability (AZ505 + Dasatinib; first compound 0.8 µM) | relative viability (AZ505 + Dasatinib; first compound 2.53 µM) | relative viability (AZ505 + Dasatinib; first compound 8 µM) | relative viability (Dactolisib + Bortezomib; first compound 0.002 µM) | relative viability (Dactolisib + Bortezomib; first compound 0.006325 µM) | relative viability (Dactolisib + Bortezomib; first compound 0.02 µM) | relative viability (Dactolisib + Bortezomib; first compound 0.06325 µM) | relative viability (Dactolisib + Bortezomib; first compound 0.2 µM) | relative viability (Dactolisib + Tozasertib; first compound 0.002 µM) | relative viability (Dactolisib + Tozasertib; first compound 0.006325 µM) | relative viability (Dactolisib + Tozasertib; first compound 0.02 µM) | relative viability (Dactolisib + Tozasertib; first compound 0.06325 µM) | relative viability (Dactolisib + Tozasertib; first compound 0.2 µM) | relative viability (Dactolisib + Pemetrexed; first compound 0.002 µM) | relative viability (Dactolisib + Pemetrexed; first compound 0.006325 µM) | relative viability (Dactolisib + Pemetrexed; first compound 0.02 µM) | relative viability (Dactolisib + Pemetrexed; first compound 0.06325 µM) | relative viability (Dactolisib + Pemetrexed; first compound 0.2 µM)
NCI-H1993 | 0.653 | 0.722 | 0.611 | 0.623 | 0.737 | 0.94 | 0.689 | 0.754 | 0.522 | 0.455 | 0.584 | 0.581 | 0.504 | 0.495 | 0.502 | 0.554 | 0.496 | 0.49 | 0.345 | 0.421
NCI-H2009 | 0.221 | 0.267 | 0.219 | 0.237 | 0.242 | 1.07 | 1.01 | 0.972 | 0.44 | 0.288 | 0.742 | 0.717 | 0.764 | 0.488 | 0.238 | 1.09 | 1.07 | 1 | 0.964 | 0.498
NCI-H2023 | 0.509 | 0.534 | 0.58 | 0.503 | 0.732 | 0.673 | 0.805 | 0.655 | 0.171 | 0.123 | 0.351 | 0.312 | 0.313 | 0.109 | 0.0881 | 0.172 | 0.182 | 0.179 | 0.101 | 0.0876
NCI-H2085 | 0.246 | 0.242 | 0.234 | 0.252 | 0.237 | 1.1 | 0.884 | 0.97 | 0.662 | 0.376 | 0.852 | 0.776 | 0.649 | 0.502 | 0.347 | 0.905 | 0.884 | 0.811 | 0.345 | 0.273
NCI-H2087 | 0.832 | 0.669 | 0.808 | 0.551 | 0.884 | 1.04 | 0.784 | 0.791 | 0.548 | 0.382 | 0.328 | 0.248 | 0.243 | 0.176 | 0.192 | 0.627 | 0.684 | 0.625 | 0.521 | 0.506
NCI-H2126 | 0.578 | 0.579 | 0.601 | 0.646 | 0.586 | 1.19 | 1.16 | 1.12 | 0.921 | 0.551 | 0.813 | 0.829 | 0.814 | 0.536 | 0.452 | 0.574 | 0.717 | 0.612 | 0.471 | 0.372
NCI-H2228 | 0.447 | 0.421 | 0.51 | 0.457 | 0.443 | 1.08 | 0.81 | 0.541 | 0.259 | 0.18 | 0.256 | 0.294 | 0.191 | 0.112 | 0.0991 | 0.35 | 0.352 | 0.324 | 0.252 | 0.144
NCI-H2347 | 0.254 | – | – | – | 0.279 | 0.809 | 0.916 | 0.894 | 0.691 | 0.402 | 0.676 | 0.527 | 0.535 | 0.394 | 0.264 | 0.459 | 0.459 | 0.426 | 0.411 | 0.422
